How the values were obtained:
[1] = system: CCRF-CEM cells; assay: Immunoblot of signaling and pro-apoptotic pathways in CCRF-CEM cells; format: cell-based
Experimental: Cell lysates (from cell lines or thymocytes) were prepared on ice in M-PER Mammalian Protein Extraction reagent (Pierce) containing a cocktail of protease and phosphatase inhibitors as described in Swat, W. et al., Essential role of PI3 Kdelta and PI3 Kgamma in thymocyte survival, Blood 107, 2415-2422 (2006). Equal amounts of total protein from lysates were separated using SDS-PAGE, transferred to PVDF membrane (Immobilon-P, Millipore). Membranes were incubated overnight incubation with appropriate primary antibodies. Bound antibodies were visualized with HRP-conjugated secondary antibodies and ECL chemistry (SuperPico West, Pierce).
The ability of Compound B treatment to interfere with proapoptotic effectors such as the BH3-only pro-apoptotic protein BAD and to repress the expression of BIM was also examined. CCRF-CEM cells were treated with Compound B ranging from 0, 0.25, 0.5, 1.0, 2.5, 5.0 and 10 μM.

[2] = system: CCRF-CEM xenografts; assay: Subcutaneous CCRF-CEM xenograft, bioluminescence; format: in vivo, mice; conditions: 10 mg/kg for 4 days, subcutaneous tumors
Experimental: Luminescent CCRF-CEM (CEM-luc) cells were generated by lentiviral infection with FUW-luc and selection with neomycin. Luciferase expression was verified with the Dual-Luciferase Reporter Assay kit (Promega). CEM-luc cells (2.5×10^6) embedded in Matrigel (BD Biosciences) were injected in the flank of NOD.Cg-Prkdc^scid Il2rg^tmlWjl/Sz mice. After 1 week, mice were treated by oral gavage with vehicle (0.5% methyl cellulose, 0.1% Tween-80) or compound every 8 hours daily for 4 days. Mice were anesthetized by isoflurane inhalation […] of D-luciferin ([…], Xenogen). Photonic emission was imaged with the In Vivo Imaging System (IVIS, Xenogen). Tumor bioluminescence was quantified by integrating the photonic flux (photons per second) through a region encircling each tumor using the LIVING IMAGES software package (Xenogen).
(§1) To assess the in vivo relevance of these observations, mice with subcutaneous or intravenous CCRF-CEM cells were treated with either Compound B or DMSO vehicle. In the subcutaneous xenographs, luciferase expressing CCRF-CEM cells were injected into the flanks of immunodeficient mice and allowed to grow for 1 week before administering vehicle control or 10 mg/kg of Compound B for a period of 4 days. In the intravenous xenographs, treatment commenced 3-day post-injection of tumor cells for a period of 7 days.

[3] = system: CCRF-CEM xenograft; assay: Intravenous (systemic) CCRF-CEM xenograft, survival; format: in vivo, mice; conditions: treatment for 7 days from 3 days post-injection; vehicle control 23 days
Experimental: CCRF-CEM cells (5×10^6) were injected intravenously in fourteen NOD.Cg-Prkdc^scid Il2rg^tmlWjl/Sz mice. After 3 days, mice were segregated into two groups that received compound or vehicle for 7 days. Mice in both groups were then followed until moribund and euthanized.
as §1

[4] = system: CCRF-CEM cells; assay: Proliferation and apoptosis of CCRF-CEM cells; format: cell-based; conditions: 1, 2.5, or 5 μM, within 24 hours, persisted 4 days
Experimental: CCRF-CEM cells were obtained from ATCC and grown in RPMI-1640 medium containing 10% FBS and antibiotics.
Cell counts for mice thymii were determined as described in Swat, W. et al., Essential role of PI3 Kdelta and PI3 Kgamma in thymocyte survival, Blood 107, 2415-2422 (2006). Cell proliferation of untransfected or shRNA transfected CCRF-CEM cells was followed by cell counting of samples in triplicate using a hemocytometer.
Cells were stained with APC-conjugated Annexin-V (BD Biosciences) in Annexin Binding Buffer (Miltyeni Biotec) and analyzed by flow cytometry.
CCRF-CEM cells, a PTEN null acute lymphoblastoid leukemia cell line, were treated with Compound B of 1, 2.5, or 5 μM or control of DMSO vehicle for a period of 4 days.

[5] = system: primary T-ALL tumors; assay: Viability of primary T-ALL tumors; format: cell-based, human; conditions: 1.0, 2.5, and 5.0 μM, 72 hours
Experimental: Cryopreserved samples from the Columbia Presbyterian Hospital, the Erasmus MC-Sophia Children's Hospital, and the University of Padua were used. All samples were collected with informed consent and supervised by the institutes' review boards and the Acute Lymphoblastic Leukemia Strategic Scientific Committee.
For primary T-ALL samples, cell viability was determined using the BD Cell Viability kit (BD Biosciences) and fluorescent counting beads as previously described in Armstrong, F. et al., NOTCH is a key regulator of human T-cell acute leukemia initiating cell activity, Blood 113, 1730-1740 (2009). Cells were plated with MS5-DL1 stroma cells. After 72 hours following treatment, cells were harvested and stained with an APC-conjugated anti-human CD45 according to the manufacturer's instructions. For solid tumor cell lines, cellular viability was determined using the AlamarBlue kit (Invitrogen). About 10,000 cells in 100 μL of media containing 10% FBS were aliquoted into individual wells of a 96-well plate and treated with vehicle (DMSO) or compound in triplicate for 24 hours. Ten μL of AlamarBlue reagent was added to each well and incubated for 4 hours at 37° C. with 5% CO2. Fluorescence was measured with an excitation wavelength at 530 to 560 nm and emission wavelength at 590 nm using Spectramax M5 plate reader (Molecular Devices, Sunnyvale, Calif.). […]

[6] = system: PTEN null T-ALL; assay: Diseased Lck/PTEN^fl/fl mice with PTEN null T-ALL; format: in vivo
Experimental: Mouse whole blood was incubated with appropriate antibodies and processed using the BD Bioscience BD FACS Lysing Solution according to the manufacturer's instructions. Immediately after lysis, cells were permeabilized with 0.025% Tween-20 in lysing solution for 15 minutes, then incubated with Ki67 antibodies. Single cell suspensions of thymocytes were isolated and stained with the appropriate antibodies as described in Swat, W. et al., Essential role of PI3 Kdelta and PI3 Kgamma in thymocyte survival, Blood 107, 2415-2422 (2006).
All mice were kept in specific pathogen-free facility at Columbia University Medical Center. All procedures were performed in accordance with the guidelines of the Institutional Animal Care and Use Committee. Lck-cre, NOD.Cg-Prkdc^scid Il2rg^tmlWjl/Sz and Gt(ROSA)26Sor^tml(Luc)Kael/J mice were obtained from the Jackson Laboratory. Mice deficient for PTEN in the T-cell lineage were generated by crossing Lck-cre with floxed PTEN. P110γ^−/− and p110δ^−/− mice as described in Swat, W. et al., Essential role of PI3 Kdelta and PI3 Kgamma in thymocyte survival, Blood 107, 2415-2422 (2006). The animals were intercrossed with Lck-cre/PTEN^fl/fl animals to generate mice homozygous mutant for either p110γ or p110δ and PTEN or homozygous mutant for p110γ, 110δ, and PTEN.
Lck/PTEN^fl/fl mice were crossed with the mice having a luciferase cDNA, preceded by a LoxP-stop-LoxP cassette was introduced into the ubiquitously expressed ROSA26 locus. […] The results are consistent with the reduction in whole blood cells and CD4 single positive population of tumor cells.
Lck/PTEN^fl/fl mice having T-ALL were administered with Compound B at an oral dose of 10 mg/kg every 8 hours or DMSO vehicle for a period of 7 days. […] Compound B extended the median survival to 45 days compared to 7.5 days for the vehicle group (data not shown).
Diseased Lck/PTEN^fl/fl mice (i.e. Lck/PTEN^fl/fl mice diagnosed with T-ALL) were treated with Compounds B for a period of 7 days. Mice were examined for sequential blood counts, peripheral smears, and flow cytometric analyses. […] Forward scatter (FSC) and Ki67 staining were indicators of cell size and proliferation, respectively; and apoptosis was detected by assessing the […] population after PI staining.
PTEN^fl/fl mice were crossed with the mice having a luciferase cDNA, preceded by a LoxP-stop-LoxP cassette was introduced into the ubiquitously expressed ROSA26 locus. Progeny were then crossed with Lck-cre transgenics to delete PTEN in T-cell progenitors and induce expression of luciferase. Imaging on T-ALL tumor bearing mice was performed at Day 0 and 4 after treatment of Compound B or vehicle.

Cc1ccccc1-n1c(C(C)Nc2nc(N)nc3[nH]cnc23)nc2cccc(C)c2c1=O (centres unmarked) [Compound B, 2-(1-(2-amino-9H-purin-6-ylamino)ethyl)-5-methyl-3-o-tolylquinazolin-4(3H)-one]
phosphorylation of GSK3β and mTOR ([1]; 0.25 to 10 μM): reduction
expression of BIM (including the L and S isoforms) ([1]; Compound B treatment): enhanced expression
phosphorylation of BAD ([1]; Compound B treatment): reduction
Akt/PKB (Ser473) phosphorylation ([1]; […]): reduction and complete abrogation
difference in luminescence, treated versus vehicle treated animals [2]: 5 fold
median survival time [3]: 35 days
apoptosis [4]: promoted apoptosis
proliferation [4]: prevented proliferation
viability of tumor cells [5]: reduced
weights of thymi, liver, spleen, and kidneys ([6]; Compound B for 7 days, versus vehicle control, P<0.01): significantly less
WBC ([6]; Compound B treatment for 7 days, by Day 4): significant reduction
bioluminescent imaging signals ([6]; Compound B treatment, Day 4, versus vehicle): dramatically lower
apoptosis (sub-G0 population after propidium iodide staining) ([6]; Compound B treatment, Day 4 through Day 7): increase in apoptosis
median survival ([6]; oral 10 mg/kg every 8 hours for 7 days, vehicle group 7.5 days): 45 days

Source: patent publication US20130143902A1, “COMPOSITIONS AND METHODS OF TREATING A PROLIFERATIVE DISEASE WITH A QUINAZOLINONE DERIVATIVE” (GILEAD CALISTOGA LLC, priority 2011, published 2013)
